This is an account of results in paper PMC6152747, “Lipophilicity Studies on Thiosemicarbazide Derivatives” (Molecules : A Journal of Synthetic Chemistry and Natural …, 2017).

pIC50: −log10 of the molar value.

A short description of data set [1]: physchem. The data set is classed as physicochemical. To be noted: for −S: slope of logk vs. methanol concentration (Eq. 1); for chromatographic logP: read-out: logPHPLC; for – S of standards: slope of Eq. 1. The method, then: Methanolic solutions (5 μL, 0.1%) of selected samples were applied to the chromatographic column (RP-18 Waters Symmetry, 15 cm length, 4.6 mm i.d., 5 μm particle size) by use of an autosampler Hitachi L-2200 (LaChrom Elite, Hitachi-Merck, Darmstadt, Germany). The mobile phase, consisting of a methanol and water mixture, was degassed by use of the built-in membrane degasser. […] Chromatograms were detected at 254 nm and the temperature of the column was 25 °C. All experiments were repeated in triplicate and the final results were taken to be the arithmetic means. Dead time was measured by use of uracil (Calbiochem. Merck, Darmstadt, Germany). All experiments were performed at ambient temperature.

Data set [2] has as its target S. aureus topoisomerase IV (topo IV). To be noted: previously tested, cited from earlier work; for pIC50: read-out: Inhibitory Potency IC50 Topo IV.
In data set [3] the target is S. aureus DNA gyrase. To be noted: previously tested, read-out: Inhibitory Potency IC50 DNA Gyrase; cited from earlier work.
Details of data set [4]: method as in earlier work. To be noted: octanol–water; OECD guidelines; cited from earlier work.
[5] abbreviates: Table 1, retention factor extrapolated to pure water (Eq. 1), methanol 45–75%, RP-18, 25 °C.
The mark [6] stands for this setting: from logkw by calibration curve with seven OECD standards (Eq. 3).
Setting [7] is: Table 2, retention factor extrapolated to pure water.
The mark [8] stands for this setting: same chromatographic conditions as compounds 1–17.

Take `O=C(NNC(=S)NC(=O)c1ccccc1Cl)c1ccccc1O` [Compound 3]: in data set [1] (setting [5]), the logkw was 4.2230. In addition, the “−S” value in data set [1] (Table 1) is listed as 6.1166. For the same compound, in data set [1] (setting [6]), the chromatographic logP stood at 4.36.
In the case of `O=C(NNC(=S)Nc1ccccc1)c1cccc(O)c1` [Compound 16], the logkw in data set [1] (setting [5]) and in data set [1] (setting [7]) was 2.0687 each time. Besides, the “−S” value in data set [1] (Table 1) was determined as 4.1968. Besides, the chromatographic logP in data set [1] (setting [6]) was determined as 2.05.
Take `Cc1ccc(NC(=S)NNC(=O)c2ccccc2O)cc1Cl` [Compound 15]: the logkw in data set [1] (setting [5]) and in data set [1] (setting [7]) was 3.9451 in each case. Moreover, the “−S” value in data set [1] (Table 1) was found to be 5.5432. Moreover, in data set [1] (setting [6]), the chromatographic logP was 4.06.
In the case of `Nc1ccccc1` [aniline, reference compound], the logkw of standards in data set [1] (Table S2, parameters of Eq. 1) is 1.1365. Further, in data set [1] (Table S2), the “– S of standards” value is given as 2.4091.
On to `O=C(NNC(=S)Nc1ccc(F)cc1F)c1cc2ccccc2[nH]1` [Compound 24], for which, in data set [2], the pIC50 is 3.53 and the “Inhibitory Potency IC50 Topo IV” value is recorded as “weak inhibitory potency”.
With `O=C(NC(=S)NNC(=O)c1cccs1)c1ccccc1` [Compound 19], in data set [3], the pIC50 is 4.08.
`c1ccccc1` [benzene, reference compound] had a logkw of standards in data set [1] (Table S2, parameters of Eq. 1) of 2.2458. Moreover, the “– S of standards” value in data set [1] (Table S2) turned out to be 2.8691.
For `O=C(NNC(=S)Nc1ccc([N+](=O)[O-])cc1)c1cc2ccccc2[nH]1` [Compound 21], the negative logarithm of the IC50 (pIC50) in data set [2] is 4.85.
With `c1ccc2ccccc2c1` [naphtalene, reference compound], in data set [4], the “known logPo/w of standards” value is reported as 3.6. The logkw of standards is 3.5779 in data set [1] (Table S2, parameters of Eq. 1) and 3.5502 in data set [1] (setting [8]). Also, the “– S of standards” value in data set [1] (Table S2) turned out to be 4.2289.
Consider `Cc1nc[nH]c1C(=O)NNC(=S)NC(=O)c1ccccc1` [Compound 20], for which, in data set [2], the pIC50 was 4.05 and the “Inhibitory Potency IC50 Topo IV” value is reported as “anti-topo IV activity”.
With `O=C(NNC(=S)Nc1ccccc1F)c1cc2ccccc2[nH]1` [Compound 22], in data set [2], the pIC50 was 4.20 and the “Inhibitory Potency IC50 Topo IV” value is recorded as “weak inhibitory potency”.
As for `O=C(NNC(=S)Nc1ccc(Cl)c(Cl)c1)c1ccccc1O` [Compound 14], the logkw in data set [1] (setting [5]) and in data set [1] (setting [7]) was 4.1453 each time. Also, the “−S” value in data set [1] (Table 1) was found to be 5.6538. The chromatographic logP in data set [1] (setting [6]) stood at 4.27.
In the case of `Cc1ccccc1` [toluene, reference compound], the “– S of standards” value in data set [1] (Table S2) turned out to be 3.4400.
Consider `COc1cccc(C(=O)NNC(=S)NC(=O)c2cccc(C)c2)c1` [Compound 6], for which the logkw in data set [1] (setting [5]) and in data set [1] (setting [7]) was 3.7864 throughout. For the same compound, the “−S” value in data set [1] (Table 1) worked out at 5.1137. For the same compound, the chromatographic logP in data set [1] (setting [6]) turned out to be 3.89.
On to `O=C(NNC(=S)NC1CCCCC1)c1ccccc1O` [Compound 13], for which the logkw in data set [1] (setting [5]) and in data set [1] (setting [7]) was 3.2386 in each case. The “−S” value in data set [1] (Table 1) came to 4.7076. In addition, the chromatographic logP in data set [1] (setting [6]) stood at 3.3.
In the case of `COc1cccc(C(=O)NNC(=S)NC(=O)c2ccc(Cl)cc2)c1` [Compound 9], the logkw in data set [1] (setting [5]) and in data set [1] (setting [7]) was 3.9422 in each case. The “−S” value in data set [1] (Table 1) is given as 5.3417. The chromatographic logP in data set [1] (setting [6]) came to 4.05.
In the case of `O=C(NC(=S)NNC(=O)c1cc2ccccc2[nH]1)c1ccccc1` [Compound 18], in data set [2], the pIC50 is 4.85 and the “Inhibitory Potency IC50 Topo IV” value is “anti-topo IV activity”.
`O=C(NNC(=S)Nc1ccc(F)cc1)c1cc2ccccc2[nH]1` [Compound 23]: in data set [2], the pIC50 was 3.57 and the “Inhibitory Potency IC50 Topo IV” value is reported as “weak inhibitory potency”. Further, the pIC50 in data set [3] was 3.89.
In the case of `O=C(NNC(=S)NC1CCCCC1)c1cccc(O)c1` [Compound 17], the logkw in data set [1] (setting [5]) and in data set [1] (setting [7]) was 2.7583 throughout. In data set [1] (Table 1), the “−S” value came out at 4.3297. Further, in data set [1] (setting [6]), the chromatographic logP stood at 2.79.
`Brc1ccccc1` [bromobenzene, reference compound] showed a logkw of standards in data set [1] (Table S2, parameters of Eq. 1) of 3.0842. Besides, the “– S of standards” value in data set [1] (Table S2) is listed as 3.6630.
Turning to `Cc1nnsc1C(=O)NNC(=S)Nc1ccc(Br)cc1` [Compound 28], the pIC50 in data set [2] was 3.39.
Regarding `COc1cccc(C(=O)NNC(=S)NC(=O)c2cccc(Cl)c2)c1` [Compound 8], the logkw in data set [1] (setting [5]) and in data set [1] (setting [7]) was 3.7422 throughout. For the same compound, in data set [1] (Table 1), the “−S” value was determined as 5.0742. Further, the chromatographic logP in data set [1] (setting [6]) is 3.84.
As for `COc1cccc(C(=O)NNC(=S)NC(=O)c2ccccc2C)c1` [Compound 5], the logkw in data set [1] (setting [5]) and in data set [1] (setting [7]) was 3.4487 throughout. Also, in data set [1] (Table 1), the “−S” value stood at 4.8562. Further, the chromatographic logP in data set [1] (setting [6]) was found to be 3.53.
For `COc1cccc(C(=O)NNC(=S)NC(=O)c2ccccc2)c1` [Compound 4], the logkw in data set [1] (setting [5]) and in data set [1] (setting [7]) was 3.3130 each time. Also, the “−S” value in data set [1] (Table 1) stood at 4.8205. Besides, in data set [1] (setting [6]), the chromatographic logP was 3.38.
As to `O=C(NNC(=S)Nc1ccc([N+](=O)[O-])cc1)c1ccc[nH]1` [Compound 27], the pIC50 in data set [3] is 4.19.
For `O=C(NNC(=S)Nc1ccc(Cl)cc1)c1ccccc1O` [Compound 11], the logkw in data set [1] (setting [5]) and in data set [1] (setting [7]) was 3.3324 each time. The “−S” value in data set [1] (Table 1) is 4.8778. The logPHPLC in data set [1] (setting [6]) was 3.4026.
In the case of `CCc1ccccc1` [ethylbenzene, reference compound], the logkw of standards stood at 3.4018 in data set [1] (Table S2, parameters of Eq. 1) and 3.3754 in data set [1] (setting [8]). Besides, the “– S of standards” value in data set [1] (Table S2) came out at 3.8740.
With `O=C(NNC(=S)Nc1ccccc1)c1ccccc1O` [Compound 12], the logkw in data set [1] (setting [5]) and in data set [1] (setting [7]) was 2.4813 in each case. The “−S” value in data set [1] (Table 1) is recorded as 4.1962. For the same compound, the chromatographic logP in data set [1] (setting [6]) was 2.49.
Regarding `O=C(CS(=O)(=O)c1ccccc1)NNC(=S)NC(=O)c1ccccc1Cl` [Compound 10], the logkw in data set [1] (setting [5]) and in data set [1] (setting [7]) was 3.2498 in each case. Also, the “−S” value in data set [1] (Table 1) was determined as 5.7291. Besides, the chromatographic logP in data set [1] (setting [6]) was determined as 3.31.
As for `COc1cccc(C(=O)NNC(=S)NC(=O)c2ccccc2Cl)c1` [Compound 7], the logkw in data set [1] (setting [5]) and in data set [1] (setting [7]) was 3.8283 throughout. Further, the “−S” value in data set [1] (Table 1) came to 5.6579. The chromatographic logP in data set [1] (setting [6]) turned out to be 3.93.
Take `Cc1occc1C(=O)NNC(=S)NC(=O)c1ccccc1` [Compound 1]: the logkw in data set [1] (setting [5]) and in data set [1] (setting [7]) was 2.9992 each time. Also, the “−S” value in data set [1] (Table 1) came out at 4.3720. Also, the chromatographic logP in data set [1] (setting [6]) is 3.05. Besides, the pIC50 in data set [3] is 4.84.
In the case of `O=C(NC(=S)NNC(=O)c1ccc[nH]1)c1ccccc1` [Compound 2], the logkw in data set [1] (setting [5]) and in data set [1] (setting [7]) was 2.5105 in each case. For the same compound, the “−S” value in data set [1] (Table 1) is reported as 4.1416. The chromatographic logP in data set [1] (setting [6]) is 2.53. Further, the pIC50 in data set [2] was 4.39; in data set [3], 4.03. Moreover, in data set [2], the “Inhibitory Potency IC50 Topo IV” value is recorded as “anti-topo IV activity”.
On to `Oc1ccc2ccccc2n1` [2-hydroxyquinoline, reference compound], for which the logkw of standards in data set [1] (Table S2, parameters of Eq. 1) was 1.4879; in data set [1] (setting [8]) it was 1.3682. The “– S of standards” value in data set [1] (Table S2) worked out at 2.9059.

The term pIC50 denotes −log10 of the IC50, conventionally taken in molar units.
